Assay results published in US11938128B2, “Small molecule BAX inhibitors and uses thereof” (Albert Einstein College of Medicine, priority 2017, dated 2024).
Where two headings read alike, the source gives them in different places.

How the values were obtained:
BAX [1] = biological target: BAX (Homo sapiens, UniProt Q07812); assay: liposome release assay, tBID-induced BAX activation in liposomal membranes; assay type: biochemical
Excerpt: FIG. 8. BAI compounds tested in BAX inhibition assay using tBID-induced BAX activation in liposomal membranes.
These compounds were hypothesized, but never shown, to work through BAX inhibition (19, 20). Accordingly, it was first investigated whether several of these small molecules inhibit BAX-mediated permeabilization of artificial membranes of similar lipid composition to the outer mitochondrial membrane (OMM). A liposome release assay (21), in which liposomes that contain a fluorophore are created, was used. Incorporation of tBID-activated BAX into the liposome membrane stimulates release of the fluorophore, providing a system to study BAX-mediated membrane permeabilization in isolation of other mitochondrial and cellular factors.
IC50 were predicted based on of “Normalized inhibition values” correlated with measured IC50 values.

[2] = biological target: recombinant, purified BAX (Homo sapiens, UniProt Q07812); assay: BAX binding by 1H-NMR and 15N-1H HSQC NMR; details: not shown
Chain of recombinant, purified BAX (Q07812 whole entry): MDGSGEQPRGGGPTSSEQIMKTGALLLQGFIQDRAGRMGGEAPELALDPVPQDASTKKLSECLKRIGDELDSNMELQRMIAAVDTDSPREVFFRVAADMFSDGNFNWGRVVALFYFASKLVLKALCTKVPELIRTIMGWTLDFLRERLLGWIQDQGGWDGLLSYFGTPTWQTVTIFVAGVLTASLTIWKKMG

[3] = system: neonatal rat cardiomyocytes (NRCM); assay: hypoxia-induced death of primary neonatal cardiomyocytes (calcein AM / ethidium homodimer); assay type: cell-based; details: for inhibition of hypoxia-induced neonatal cardiomyocyte death: percentage of EthD positive cells
Experimental: (§1) FIG. 6A-6C. […] Cell death was assessed using calcein AM (alive) and ethidium homodimer (dead) staining. (C) BAI1 inhibits hypoxia-induced loss of inner mitochondrial membrane potential (Δψm) in neonatal cardiomyocytes.
FIG. 20A-20B. […] Quantification of percentage of TUNEL positive cells. […] BAI-1 dose response. Percentage of dead cells represents percentage of ethidium homodimer-1 (EthD) positive cells.
FIG. 21A-21C. BAI-A1, BAI-A2 and BAI-A21 inhibit cardiomyocyte necrotic cell death. NRCM were pre-treated with varying concentrations of BAI-A1 (A), BAI-A2 (B) or BAI-A21 (C) and cultured under normoxic or hypoxic conditions. Percentage of dead cells represents percentage of EthD positive cells.

Adult rat cardiomyocytes = assay: hypoxia/reoxygenation-induced death of adult cardiomyocytes; assay type: cell-based
Experimental: as §1
FIG. 22A-22B. […] Percentage of dead cells represents percentage of EthD positive cells.

[4] = plasma protein binding, mouse plasma; assay type: in vitro ADME
BAX [5] = biological target: T1, BAX (Mus musculus, UniProt Q07813); assay: BAX activation during MI/R in vivo, 6A7 antibody immunostaining; details: 45 min ischemia/6 h reperfusion, 6A7 immunostaining
T1 construct: from tissue; host or cells: heart (myocardium) after 45 min ischemia/6 h reperfusion
T1 sequence (Q07813 whole entry, the tested form may be a part): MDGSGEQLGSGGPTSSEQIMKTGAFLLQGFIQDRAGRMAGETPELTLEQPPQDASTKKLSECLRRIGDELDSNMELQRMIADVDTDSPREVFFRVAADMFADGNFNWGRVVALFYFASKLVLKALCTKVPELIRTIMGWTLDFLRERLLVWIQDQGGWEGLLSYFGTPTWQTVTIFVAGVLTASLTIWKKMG
Experimental: Accordingly, the ability of BAI-A1 to inhibit BAX activation during MI/R was tested in vivo (FIG. 7). […] The pharmacokinetics of BAI-A1 were measured in the mouse by injecting 1 mg/kg into a cohort of mice and harvesting plasma and heart tissue 0, 1, 6, and 24 h.

[6] = pharmacokinetics of BAI-A1 in the mouse; assay type: in vivo; details: other: injection (type of injection not given), 1 mg/kg
Experimental: Accordingly, the ability of BAI-A1 to inhibit BAX activation during MI/R was tested in vivo (FIG. 7). […] This was assessed following 45 min ischemia/6 h reperfusion, the time point that BAX is activated maximally in the absence of drug. It was concluded that BAI-A1 can access myocardial cells and is effective at inhibiting BAX activation during MI/R in vivo. The pharmacokinetics of BAI-A1 were measured in the mouse by injecting 1 mg/kg into a cohort of mice and harvesting plasma and heart tissue 0, 1, 6, and 24 h.

[7] = pharmacokinetic properties, half-life in plasma; assay type: in vivo
BAX [8] = biological target: T1, BAX; assay: STS-induced BAX translocation to mitochondria (immunostaining of BAX puncta); assay type: cell-based; details: data not shown
Experimental: A key event in BAX activation is exposure of α helix 9 containing a transmembrane domain that inserts tightly into the outer mitochondrial membrane (OMM). BAX insertion into the OMM can be assessed by treating isolated mitochondria with strong alkali, which separates loosely attached proteins from mitochondria but fails to extract membrane-inserted proteins. […] One important result of BAX conformational activation is its translocation from cytosol to mitochondria. […] Translocation was assessed by immunostaining for mitochondrial BAX puncta. […] (Data not shown.)

[9] = system: mouse embryonic fibroblasts; assay: TNFα-induced BAX-mediated apoptotic cell death; assay type: cell-based; details: data not shown
[10] = plasma protein binding, rats; assay type: in vitro ADME; details: rat
[11] = BAI-A22 pharmacokinetics in rats, non-compartmental analysis; assay type: in vivo; details: rat, plasma, iv, male Sprague Dawley rats, 1 mg/kg intravenously, NCA
Experimental: FIG. 11A-11B. BAI-A22 pharmacokinetics. BAI-A22 was injected intravenously in male Sprague Dawley® rats at 1 mg/kg dose and blood plasma and heart tissue were collected at different time points, and drug levels measured by LC-MS/MS. (A) Average BAI-A22 concentrations in blood plasma. (B) Average BAI-A22 concentrations in heart tissue.
Pharmacokinetic parameters from non-compartmental analysis using WinNonLin software. C0: maximum plasma concentration extrapolated to t=0; tmax: time of maximum plasma concentration; t1/2: half-life; MRTlast: mean residence time, calculated to the last observable time point; CL: clearance; Vss: steady state volume of distribution; AUClast: area under the curve, calculated to the last observable time point; AUC∞: area under the curve, extrapolated to infinity. Materials and Methods for the Chemical Syntheses

[12] = system: mouse embryonic fibroblasts; assay: apoptosis in mouse embryonic fibroblasts (FIG. 18); assay type: cell-based; details: doxorubicin-induced per text, STS or ABT-737 per legend
Excerpt: FIG. 18. […] Apoptosis was induced with either staurosporine (STS) or pro-apoptotic ABT-737 drug.

[13] = acute doxorubicin heart failure model in mice; assay type: in vivo, mouse; details: doxorubicin 20 mg/kg i.p. single; inhibitor 2 mg/kg i.p. single
[14] = chronic doxorubicin-induced cardiomyopathy mouse model; assay type: in vivo; details: doxorubicin 3 mg/kg IP x8, inhibitor 2 mg/kg
Excerpt: FIG. 25A-25B. […] (A) Hearts were collected from mice in the chronic doxorubicin model and sectioned to stain for the apoptosis marker, TUNEL. Percentage of TUNEL positive nuclei per field. (B) Hearts were collected from mice in the chronic doxorubicin model and sectioned to immunostain for HMGB1, loss of which indicates necrosis. Percentage of nuclei that lost HMGB1 per field.
Patients typically receive several “cycles” of doxorubicin administered at lower doses. The exact protocol depends on the cancer being treated. For example, some leukemias are treated with 4 cycles of 60 mg/m^2 (which would be the equivalent of 1.5 mg/kg) IV administered every 21-28 days. […] Based on this experience, a chronic protocol was used in which mice receive 3 mg/kg doxorubicin IP every other day×8 doses (i.e. over a two-week period) for a cumulative dose of 24 mg/kg.

[15] = liposome release, minimum of 4 inhibitor concentrations around the IC50, read-out: Measured IC 50/μM
[16] = predicted from normalized inhibition values (5 and 10 μM, normalized to BAI1) correlated with measured IC50 values, read-out: Predicted IC50/μM

Chain of BAX (Homo sapiens, UniProt Q07812) (Q07812 whole entry): as the sequence (Q07812 whole entry) above

SMILES: OC(CN1CCN(CCCc2ccccc2)CC1)Cn1c2ccc(Br)cc2c2cc(Br)ccc21 (stereo not drawn) [BAI-3]
- inhibition of membrane permeabilization induced by tBID-activated BAX (BAX [1]; FIG. 2): not effective to inhibit tBID-induced BAX activation
- fluorophore release by compound alone (BAX [1]; compound alone, without BAX/tBID): do not stimulate fluorophore release

SMILES: OC(CN1CCNCC1)Cn1c2ccccc2c2ccccc21 (stereo not drawn) [BAI-A1]
- IC50 (BAX [1]; [15]): 40 µM
- IC50 (BAX [1]; [16]): > 20 µM
- BAX binding relative to BAI-1 [2]: less BAX binding than BAI-1
- ability to protect neonatal cardiomyocytes against hypoxia, versus BAI-1 ([3]; not shown): only modestly decreased
- inhibition of hypoxia-induced neonatal cardiomyocyte death [3]: inhibit necrosis in cardiomyocytes in a dose-dependent manner
- inhibition of adult cardiomyocyte necrosis (Adult rat cardiomyocytes; hypoxia and reoxygenation (H/R)): inhibit necrosis in cardiomyocytes in a dose-dependent manner
- ability to protect adult cardiomyocytes against hypoxia/reoxygenation, versus BAI-1 (Adult rat cardiomyocytes; not shown): only modestly decreased
- fraction unbound [4]: 0.106
- BAX conformational activation in vivo (BAX [5]): potently blocks BAX conformational activation
- half-life ([6]; heart tissue, read-out: half-life in heart tissue (converted)): ~3.5 h
- half-life ([6]; plasma, read-out: half-life in plasma (converted)): ~3.5 h
- half-life [7]: 3.5 h

SMILES: OCCN(CCO)CC(O)Cn1c2ccc(Cl)cc2c2cc(Cl)ccc21 (stereo not drawn) [BAI-A9]
- IC50 (BAX [1]; [16]): 9.7 µM

SMILES: OCC(O)Cn1c2ccc(Br)cc2c2cc(Br)ccc21 (stereo not drawn) [BAI-A10]
- IC50 (BAX [1]; [16]): 10.8 µM

SMILES: O=C(O)CCn1c2ccc(Br)cc2c2cc(Br)ccc21 [BAI-A11]
- IC50 (BAX [1]; [16]): 10.4 µM

SMILES: OCCNCC(O)Cn1c2ccc(Br)cc2c2cc(Br)ccc21 (stereo not drawn) [BAI-A12]
- IC50 (BAX [1]; [16]): 8.8 µM

SMILES: CN1CCN(CC(O)CN2c3ccccc3Sc3ccccc32)CC1 (stereo not drawn) [BAI-A13]
- IC50 (BAX [1]; [15]): 13 µM
- IC50 (BAX [1]; [16]): 13.8 µM

SMILES: OCCN(CCO)CC(O)CN1c2ccccc2Sc2ccccc21 (stereo not drawn) [BAI-A14]
- IC50 (BAX [1]; [16]): 15.3 µM

SMILES: OCCN1CCN(CCCN2c3ccccc3Sc3ccccc32)CC1 [BAI-A15]
- IC50 (BAX [1]; [15]): 6 µM
- IC50 (BAX [1]; [16]): 11.7 µM

SMILES: OC(CN1CCNCC1)Cn1c2ccc(F)cc2c2cc(F)ccc21 (stereo not drawn) [BAI-A16]
- IC50 (BAX [1]; [15]): 18 µM

SMILES: Cc1ccc2c(c1)c1cc(C)ccc1n2CC(O)CN1CCNCC1 (stereo not drawn) [BAI-A17]
- IC50 (BAX [1]; [15]): 27 µM

SMILES: OC(CN1CCNCC1)Cn1c2ccc(C(F)(F)F)cc2c2cc(C(F)(F)F)ccc21 (stereo not drawn) [BAI-A18]
- IC50 (BAX [1]; [15]): 15 µM

SMILES: Cc1ccc(N(CC(O)CN2CCNCC2)c2ccc(C)cc2)cc1 (stereo not drawn) [BAI-A19]
- IC50 (BAX [1]; [15]): 26 µM
- inhibition of hypoxia-induced neonatal cardiomyocyte death [3]: potently inhibits primary neonatal cardiomyocyte death induced by hypoxia
- BAX conformational activation in vivo (BAX [5]): inhibition of BAX activation in vivo

SMILES: Cc1cn(CC(O)CN2CCNCC2)c2ccccc12 (stereo not drawn) [BAI-A20]
- IC50 (BAX [1]; [15]): > 100 µM
- inhibition of hypoxia-induced neonatal cardiomyocyte death [3]: does not

SMILES: OC(CN1CCNCC1)CN(c1ccc(Br)cc1)c1ccc(Br)cc1 (stereo not drawn) [BAI-A21]
- IC50 (BAX [1]; [15]): 4.5 µM
- inhibition of hypoxia-induced neonatal cardiomyocyte death [3]: inhibit necrosis in cardiomyocytes in a dose-dependent manner

SMILES: OC(CN1CCNCC1)CN(c1ccccc1)c1ccc(Br)cc1 (stereo not drawn) [BAI-A22, 1-((4-bromophenyl)(phenyl)amino)-3-(piperazin-1-yl)propan-2-ol]
- IC50 (BAX [1]; [15]): 11 µM
- BAX translocation to the mitochondria (BAX [8]): A similar result was observed
- nuclear fragmentation [9]: Nuclear fragmentation was also inhibited
- inhibition of hypoxia-induced neonatal cardiomyocyte death [3]: potently inhibits primary neonatal cardiomyocyte death induced by hypoxia
- fraction unbound [10]: 0.044
- AUC(0-t) ([11]; parameter and unit are drawings, read-out: AUClast: area under the curve, calculated to the last observable time point): 390 ± 42.7 ng·h/mL
- MRT last ([11]; parameter and unit are drawings, read-out: MRTlast: mean residence time, calculated to the last observable time point): 2.15 h
- Tmax ([11]; parameter and unit are drawings, read-out: tmax: time of maximum plasma concentration): 0 h
- Vd ([11]; parameter is a drawing, read-out: Vss: steady state volume of distribution): 10.5 L/kg
- AUC(0-inf) ([11]; unit is a drawing): 524 ng·h/mL
- Cmax ([11]; unit is a drawing): 318 ng/mL
- clearance ([11]; unit is a drawing): 31.8 mL/min/kg
- half-life ([11]; unit is a drawing): 5.04 h
- C0 ([11]; unit is a drawing, read-out: C0: maximum plasma concentration extrapolated to t=0): 318 ng/mL
- half-life [7]: 5 h
- apoptosis in mouse embryonic fibroblasts [12]: inhibits doxorubicin-induced apoptosis in mouse embryonic fibroblasts
- heart function (ejection fraction) in doxorubicin-treated mice [13]: therapeutically effective
- cardiac dysfunction (fractional shortening, ejection fraction, systolic wall thickening) [14]: significantly protected the heart from cardiac dysfunction
